From article PMC3003687, “α-Galactosylceramide Analogs with Weak Agonist Activity for Human iNKT Cells Define New Candidate Anti-Inflammatory Agents” (PLoS ONE, 2010)

Experiments:
Human iNKT TCRs = Human iNKT TCRs (Homo sapiens, UniProt A0A075B6N4+A0A0B4J240+P15813); test: Equilibrium binding of analog-loaded hCD1d tetramers to iNKT cell clones
Text: For flow cytometric analysis, 6B11 (Vα24Jα18 specific) and mAbs specific for human CD3, CD4, CD8α, CD19, CD40L (CD154), CD56, CD69, GM-CSF & IFNγ were obtained from BD Biosciences. IL-4 and IL-13 specific mAbs were from Biolegend. Vα24 (C15) and Vβ11 (C21) specific mAb were from Immunotech. For antibody blocking in culture assays, non-specific isotype matched control, IL-2, IFNγ, IL-12p70 and CD40L specific mAbs without preservatives were obtained from BD Biosciences and IL-18 specific mAb from Medical & Biological Laboratories (MBL, Nagoya, Japan). Phycoerythrin and allophycocyanin labeled human CD1d tetramers were prepared in our laboratory as previously described. Curves of tetramer equilibrium binding constants and graphs were plotted using the Graphpad Prism Software (Version 5). KD values were calculated using the function non-linear fit (hyperbola, one binding site).
To characterize in more detail the iNKT cell TCR recognition of αGalCer analogs presented by human CD1d, we generated soluble and fluorescent tetrameric hCD1d molecules loaded with each of the glycolipid analogs. […] This was similar to the previously reported failure of mouse CD1d tetramer loaded with lysosulfatide to bind detectably to murine non-invariant and sulfatide specific NKT cells, despite a clear reactivity to this lipid upon presentation by APCs; [40]. […] To quantitate their binding avidities to iNKT cell TCRs, we used titration of analog-loaded hCD1d tetramers to determine equilibrium dissociation constants (KD), which are inversely proportional to avidity (Figure 3A and 3B).
Figure 3 Characterization of human iNKT cell TCR interactions with analog-loaded tetramers. (A) iNKT cell clones were stained with titrated amounts of hCD1d tetramers loaded with the indicated glycolipids (abbreviations as in legend to Figure 1), and the measured MFI values are plotted for selected glycolipids. (B) The equilibrium dissociation constants (KD, inversely proportional to TCR avidity) were determined as the concentrations of tetramers required to yield 50% of maximal binding. Data shown were obtained using the CD4^+ iNKT cell clone HDD3, and similar results (not shown) were obtained with a second CD4^+ clone (HDD11) and a CD4^−8^− double negative iNKT cell clone (HDE3). (C) Analysis of iNKT cell clones labeled with 20 nM of hCD1d tetramers which were loaded with variable excesses of analog to constant hCD1d (25 to 1000 fold molar excess of glycolipid to hCD1d protein). The measured MFI values were normalized as the percent of the maximum staining intensity obtained with each analog loaded tetramer. Data presented were generated with HDD3 (CD4+) iNKT cell clone, and similar results (not shown) were obtained with HDE3 (DN) clone.

[1] = test system: human iNKT cells and NK cells; test: In vitro transactivation assay (CFSE-labeled iNKT cells co-cultured with PBMC); assay type: cell-based; conditions: for IL-12 levels in supernatants / IL-13 levels in supernatants / IL-18 levels in supernatants / global IFNγ production in supernatants: 24 h, ELISA
Procedure: iNKT cells were stained for 5 minutes with 1–20 µM of CFSE (Molecular probes) and 5% FCS in PBS and washed twice. As a positive control, a fraction of CFSE-labeled iNKT cells were preactivated for 30 minutes with 1 µg/mL of PMA and 250 ng/mL of Ionomycin (Sigma-Aldrich) in culture medium and extensively washed. The experiment was initiated by adding CFSE-labeled unstimulated or PMA/Ionomycin-preactivated iNKT cells to freshly prepared PBMC pulsed with vehicle or αGalCer analogs at the indicated concentrations and at an iNKT/PBMC ratio of 1/10 or 1/40. Supernatants and cells were harvested from parallel conditions after the indicated time of co-culture. For intracellular cytokine staining, brefeldin A (Golgiplug, BD Biosciences) was added 4 h before harvesting the cells, which were fixed with 1% paraformaldehyde and permeabilized with 0.1% saponin (Sigma-Aldrich) prior to mAb staining. Experiments with blocking antibodies were performed with 10 µg/mL of preservative-free mAbs, including isotype matched control, anti-IL-2, anti-IL-12, anti-IFNγ and anti-CD40L (all from BD Biosciences) or anti-IL-18 (MBL). For detection of CD40L expression by iNKT cells, co-cultures of iNKT and PBMC were prepared as above, except that monensin (Golgistop, BD Biosciences) and fluorescent CD40L specific mAb (1/10 or 1/20 final dilution) were added at the beginning of the experiment, as previously described.
Figure 6 A novel in vitro “transactivation assay” to assess the ability of human iNKT cells to activate other leukocytes. (A) Format for analysis of transactivation of bystander leukocytes. Flow cytometric analysis was carried out for culture containing iNKT cells co-cultured for 24 hours with fresh human PBMC at a 1/10 ratio. For the intracellular detection of IFNγ, Brefeldin A was added for the last 4 hours. Representative electronic gating is shown for the discrimination of CFSE-labeled iNKT cells, B cells, T cells, and NK cells to measure IFNγ expression (or CD69 expression, not shown). Filled black histograms show staining with vehicle control and are overlaid with open gray histograms for stimulation with 100 nM of KRN7000. (B) Dose-dependent IFNγ and CD40L expression by iNKT cells (top and middle graph, respectively) and IFNγ production by transactivated NK cells (bottom graph), after 24 h of co-culture of CFSE-labeled iNKT cells and PBMCs at a 1/10 ratios and the indicated concentration of either KRN7000 (black filled circles) or the adamantanoyl (AD) analog (open circles). Data are presented for a CD4^+ clone (HDD3), and similar results (not shown) were obtained with a DN clone (HDE3). (C) Effect of specific blockade of various cytokines and CD40L on the activation of iNKT cells and transactivated NK cells. CFSE-labeled iNKT cells and PBMCs were co-cultured at a 1/40 ratio for the indicated time, in the presence of KRN7000 at 25 nM and 10 µg/mL of isotype matched control or specific blocking antibodies as indicated. Average percentages of IFNγ^+ iNKT cells and NK cells, assessed by intracellular staining at 24, 48 and 66 hours, are indicated in the left and right plots, respectively.
Figure 7 Comparison of αGalCer analogs for their ability to induce NK cell transactivation. (A) iNKT cell clones were co-cultured for 24 hours with fresh human PBMC at a 1/10 ratio with 100 nM of the indicated analogs, and Brefeldin A was added for the last 4 hours. The percentages of IFNγ^+ iNKT cells (open bars) and IFNγ^+ NK cells (filled bars) are indicated. Cytokine levels were assessed by ELISA in supernatants from identical conditions in absence of Brefeldin A treatment: (B) IFNγ levels (open bars) and IL-13 levels (filled bars); the detection limit was 82.3 ng/mL for both cytokines. (C) IL-12 levels (open bars) and IL-18 levels (filled bars); the detection limit was 27.4 ng/mL. Results obtained with a CD4^+ clone (HDD3) are presented, and similar data (not shown) were obtained with a DN clone (HDE3).

Human iNKT TCRs, sequence (P15813 20-301): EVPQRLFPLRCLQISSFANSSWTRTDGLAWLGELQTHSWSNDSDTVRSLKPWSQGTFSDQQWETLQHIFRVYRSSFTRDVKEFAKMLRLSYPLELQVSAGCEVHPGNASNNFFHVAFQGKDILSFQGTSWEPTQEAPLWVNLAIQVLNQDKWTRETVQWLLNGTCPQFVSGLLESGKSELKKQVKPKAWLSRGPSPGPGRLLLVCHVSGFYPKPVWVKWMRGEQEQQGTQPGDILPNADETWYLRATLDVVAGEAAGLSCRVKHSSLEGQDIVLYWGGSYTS
Human iNKT TCRs, sequence (P01848 whole entry, further chain): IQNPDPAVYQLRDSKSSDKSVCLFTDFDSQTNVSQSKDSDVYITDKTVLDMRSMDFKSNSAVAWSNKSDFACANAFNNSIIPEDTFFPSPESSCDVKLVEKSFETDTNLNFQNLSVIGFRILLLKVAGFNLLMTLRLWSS
Human iNKT TCRs, sequence (A0A0B4J240 22-114): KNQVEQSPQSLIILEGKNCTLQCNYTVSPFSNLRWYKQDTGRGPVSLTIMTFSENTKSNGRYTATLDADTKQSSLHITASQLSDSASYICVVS
Human iNKT TCRs, sequence (P61769 21-119, further chain): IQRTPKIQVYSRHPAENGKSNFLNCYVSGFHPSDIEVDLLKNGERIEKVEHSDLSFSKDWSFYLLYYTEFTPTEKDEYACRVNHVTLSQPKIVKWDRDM
Human iNKT TCRs, sequence (A0A075B6N4 22-114): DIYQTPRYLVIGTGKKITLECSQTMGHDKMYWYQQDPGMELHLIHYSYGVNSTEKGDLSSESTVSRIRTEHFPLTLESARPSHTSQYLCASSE

SMILES | avidity of human iNKT TCRs for analog in complex with hCD1d (Human iNKT TCRs) | IL-12 levels in supernatants ([1]; 100 nM) | IL-13 levels in supernatants ([1]; 100 nM) | IL-18 levels in supernatants ([1]; 100 nM) | global IFNγ production in supernatants ([1]; 100 nM) | IFNγ production in bystander leukocytes (intracellular staining) ([1]; 100 nM, iNKT/PBMC 1/10) | CD69 induction in bystander leukocytes upon iNKT cell stimulation ([1]; not shown)
CCCCC/C=C\C/C=C\CCCCCCCCCC(=O)N[C@@H](CO[C@H]1O[C@H](CO)[C@H](O)[C@H](O)[C@H]1O)[C@H](O)[C@H](O)CCCCCCCCCCCCCC [C20:2] | strong avidity | detectable IL-12 generation | high IL-13 levels | enhanced IL-18 levels compared to vehicle control | high global production of IFNγ | – | –
CCCCC/C=C\C/C=C\C/C=C\C/C=C\CCCC(=O)N[C@@H](CO[C@H]1O[C@H](CO)[C@H](O)[C@H](O)[C@H]1O)[C@H](O)[C@H](O)CCCCCCCCCCCCCC [C20:4] | strong avidity | detectable IL-12 generation | high IL-13 levels | enhanced IL-18 levels compared to vehicle control | high global production of IFNγ | – | –
CCCCCCCCCCCCCCCCCCCCCCCCCC(=O)N[C@@H](CO[C@H]1O[C@H](CO)[C@H](O)[C@H](O)[C@H]1O)[C@H](O)[C@H](O)CCCCCCCCCCCCCC [KRN7000, reference compound] | strong avidity | – | – | – | – | detectable at 24 h in NK cells, but not in T cells or B cells | nearly all B cells and NK cells, but not T cells, became CD69^+
